# Laboratory results: patent US7704995B2 (Exelixis, Inc., priority 2003, dated 2010)
# Target: T1, Chk1 (Homo sapiens, UniProt O14757)
# T1 construct: purchased Upstate Biotechnology
# T1 sequence (O14757 1-476): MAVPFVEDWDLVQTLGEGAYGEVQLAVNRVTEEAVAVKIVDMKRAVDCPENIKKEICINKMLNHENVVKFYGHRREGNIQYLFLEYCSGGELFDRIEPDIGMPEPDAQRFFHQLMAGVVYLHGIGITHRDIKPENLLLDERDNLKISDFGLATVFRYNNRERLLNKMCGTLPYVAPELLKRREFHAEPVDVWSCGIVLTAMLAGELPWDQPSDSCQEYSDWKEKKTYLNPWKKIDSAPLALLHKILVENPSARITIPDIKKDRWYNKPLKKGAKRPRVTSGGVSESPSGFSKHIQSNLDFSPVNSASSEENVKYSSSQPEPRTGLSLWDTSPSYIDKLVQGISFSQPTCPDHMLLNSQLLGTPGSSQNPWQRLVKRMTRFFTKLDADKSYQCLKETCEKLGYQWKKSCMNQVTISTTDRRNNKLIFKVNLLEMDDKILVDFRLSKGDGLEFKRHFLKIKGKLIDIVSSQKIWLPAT
# Test: Chk1 kinase assay: incorporation of γ-33P ATP into immobilized myelin basic protein
# Format: biochemical
# Conditions: Table 11, Chk1 only; class symbols A-D; read-out: Chk1 IC50
# Method in brief: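 Immobilized-MBP radiometric kinase assay, room temperature for 1 h; ATP 10 μM (Chk1, 10 nM enzyme) or 30 μM (Chk2, 20 nM enzyme) with 33P tracer. Values are IC50s, with Ki derived from them.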
row,IC50 [nM],Compound
1,< 50,"Nc1ncc(-c2cccc(CNC(=O)Nc3ccc4c(c3)OCCO4)c2)nc1C(=O)N[C@H]1CCCNC1 [Example 935, 3-amino-6-[3-({[(2,3-dihydro-1,4-benzodioxin-6-ylamino)carbonyl]amino}methyl)phenyl]-N-[(3S)-piperidin-3-yl]pyrazine-2-carboxamide]"
2,50 to 1000,"Nc1ncc(-c2cccc(CNS(=O)(=O)c3ccccc3C(F)(F)F)c2)nc1C(=O)N[C@H]1CCCNC1 [Example 915, 3-amino-N-[(3S)-piperidin-3-yl]-6-{3-[({[2-(trifluoromethyl)phenyl]sulfonyl}amino)methyl]phenyl}pyrazine-2-carboxamide]"
3,< 50,"Nc1ncc(-c2cccc(C(=O)NCc3cc(Cl)ccc3F)c2)nc1C(=O)N[C@H]1CCCNC1 [Example 862, 3-amino-6-[3-({[(5-chloro-2-fluorophenyl)methyl]amino}carbonyl)phenyl]-N-[(3S)-piperidin-3-yl]pyrazine-2-carboxamide]"
4,< 50,"Nc1ncc(-c2cccc(C(=O)NCc3ccc(F)cc3F)c2)nc1C(=O)N[C@H]1CCCNC1 [Example 848, 3-amino-6-[3-({[(2,4-difluorophenyl)methyl]amino}carbonyl)phenyl]-N-[(3S)-piperidin-3-yl]pyrazine-2-carboxamide]"
5,< 50,"Nc1ncc(-c2cccc(CN[C@H]3CCCc4ccccc43)c2)nc1C(=O)N[C@H]1CCNC1 [Example 808, 3-amino-N-[(3S)pyrrolidin-3-yl]-6-(3-{[(1S)-1,2,3,4-tetrahydronaphthalen-1-ylamino]methyl}phenyl)pyrazine-2-carboxamide]"
6,< 50,"Nc1ncc(-c2cccc(C(=O)NCc3ccc(-n4cccn4)cc3)c2)nc1C(=O)N[C@H]1CCCNC1 [Example 1033, 3-amino-N-[(3S)-piperidin-3-yl]-6-{3-[({[4-(1H-pyrazol-1-yl)phenyl]methyl}amino)carbonyl]phenyl}pyrazine-2-carboxamide]"
7,50 to 1000,"Nc1ncc(-c2cccc(CNS(=O)(=O)c3ccc(C(F)(F)F)cc3)c2)nc1C(=O)N[C@H]1CCCNC1 [Example 918, 3-amino-N-[(3S)-piperidin-3-yl]-6-{3-[({[4-(trifluoromethyl)phenyl]sulfonyl}amino)methyl]phenyl}pyrazine-2-carboxamide]"

# Same assay, conditions: Table 11; Chk1 only; read-out: Chk1 IC50
row,IC50 [nM],Compound
1,1000 to 10000,"Cc1noc(C)c1NC(=O)NCCNC(=O)c1nc(-c2cccc(C(=O)NCc3ccccc3)c2)cnc1N [Example 666, 3-amino-N-[2-({[(3,5-dimethylisoxazol-4-yl)amino]carbonyl}amino)ethyl]-6-(3-{[(phenylmethyl)amino]carbonyl}phenyl)pyrazine-2-carboxamide]"
2,1000 to 10000,"N=C(NNc1ccccc1)c1nc(-c2cccc(C(=O)NCc3ccccc3)c2)cnc1N [Example 619, 3-{5-amino-6-[imino(2-phenylhydrazino)methyl]pyrazin-2-yl}-N-(phenylmethyl)benzamide]"
3,50 to 1000,"CNC(=O)c1nc(-c2cc(C(=O)N[C@@H]3CCNC3)cc(C(=O)N[C@@H]3CCc4ccccc43)c2)cnc1N [Example 797, 5-{5-amino-6-[(methylamino)carbonyl]pyrazin-2-yl}-N-[(1R)-2,3-dihydro-1H-inden-1-yl]-N′-[(3R)-pyrrolidin-3-yl]benzene-1,3-dicarboxamide]"
4,1000 to 10000,"CCN1CCCC(c2nnc(-c3nc(-c4cccc(CO)c4)cnc3N)[nH]2)C1 (stereo not shown) [Example 732, (3-{5-amino-6-[5-(1-ethylpiperidin-3-yl)-4H-1,2,4-triazol-3-yl]pyrazin-2-yl}phenyl)methanol]"
5,≥ 10000,"CC(C)(C)OC(=O)N1CCC[C@@H](NC(=O)c2nc(-c3cccc(C(=O)N[C@@H]4c5ccccc5C[C@@H]4O)c3)cnc2N)C1 [Example 795, 1,1-dimethylethyl (3R)-3-[({3-amino-6-[3-({[(1R,2S)-2-hydroxy-2,3-dihydro-1H-inden-1-yl]amino}carbonyl)phenyl]pyrazin-2-yl}carbonyl)amino]piperidine-1-carboxylate]"
6,≥ 10000,"Cc1ccc(N/N=C/c2nc(-c3cccc(C(=O)NCc4ccccc4)c3)cnc2N)cc1 [Example 680, 3-(5-amino-6-{(E)-[(4-methylphenyl)hydrazono]methyl}pyrazin-2-yl)-N-(phenylmethyl)benzamide]"

# Second part, the molecule before the results:
row,Compound,IC50 [nM]
1,"Cc1nc(-c2nc(-c3cccc(C(=O)N[C@H]4CCc5ccccc54)c3)cnc2N)nn1-c1ccncc1 [Example 793, 3-[5-amino-6-(5-methyl-1-pyridin-4-yl-1H-1,2,4-triazol-3-yl)pyrazin-2-yl]-N-[(1S)-2,3-dihydro-1H-inden-1-yl]benzamide]",1000 to 10000
2,"Nc1ncc(-c2cccc(C(=O)NCc3ccccc3)c2)nc1C(=O)NCCCNC(=O)c1ccco1 [Example 648, 3-amino-N-{3-[(furan-2-ylcarbonyl)amino]propyl}-6-(3-{[(phenylmethyl)amino]carbonyl}phenyl)pyrazine-2-carboxamide]",1000 to 10000
3,"CN1CCN(NC(=N)c2nc(-c3cccc(C(=O)NCc4ccccc4)c3)cnc2N)CC1 [Example 621, 3-(5-amino-6-{imino[(4-methylpiperazin-1-yl)amino]methyl}pyrazin-2-yl)-N-(phenylmethyl)benzamide]",≥ 10000
4,"Cc1noc(C)c1NC(=O)NCCCNC(=O)c1nc(-c2cccc(C(=O)NCc3ccccc3)c2)cnc1N [Example 655, 3-amino-N-[3-({[(3,5-dimethylisoxazol-4-yl)amino]carbonyl}amino)propyl]-6-(3-{[(phenylmethyl)amino]carbonyl}phenyl)pyrazine-2-carboxamide]",1000 to 10000

# Same assay, conditions: read-out: Chk1 IC50
row,IC50 [nM],Compound
1,50 to 1000,"CNC(=O)c1nc(-c2cccc(OCCN3CCN(c4ccccc4)CC3)c2)cnc1N [Example 181, 3-amino-N-methyl-6-(3-{[2-(4-phenylpiperazin-1-yl)ethyl]oxy}phenyl)pyrazine-2-carboxamide]"
2,50 to 1000,"CNC(=O)c1nc(-c2cccc(OCCN3CCc4ccccc4C3)c2)cnc1N [Example 194, 3-amino-6-(3-{[2-(3,4-dihydroisoquinolin-2(1H)-yl)ethyl]oxy}phenyl)-N-methylpyrazine-2-carboxamide]"
3,50 to 1000,"CNC(=O)c1nc(-c2cccc(N)c2)cnc1N [Example 51, 3-amino-6-(3-aminophenyl)-N-methylpyrazine-2-carboxamide]"
4,1000 to 10000,"CNC(=O)c1nc(-c2cccc(C(=O)Nc3ccc(C)cc3)c2)cnc1N [Example 221, 3-amino-N-methyl-6-(3-{[(4-methylphenyl)amino]carbonyl}phenyl)pyrazine-2-carboxamide]"
5,1000 to 10000,"CNC(=O)c1nc(-c2cccc(C(=O)N3CCN(Cc4ccccc4)CC3)c2)cnc1N [Example 117, 3-amino-N-methyl-6-(3-{[4-(phenylmethyl)piperazin-1-yl]carbonyl}phenyl)pyrazine-2-carboxamide]"
6,1000 to 10000,"CNC(=O)c1nc(-c2ccc(NS(C)(=O)=O)cc2)cnc1N [Example 77, 3-amino-N-methyl-6-{4-[(methylsulfonyl)amino]phenyl}pyrazine-2-carboxamide]"

# Second part, the molecule before the results:
row,Compound,IC50 [nM]
1,"CNC(=O)c1nc(-c2cccc(CN3Cc4ccccc4C3)c2)cnc1N [Example 416, 3-amino-6-[3-(1,3-dihydro-2H-isoindol-2-ylmethyl)phenyl]-N-methylpyrazine-2-carboxamide]",50 to 1000
2,"CNC(=O)c1nc(-c2cccc(NCc3ccccc3)c2)cnc1N [Example 372, 3-amino-N-methyl-6-{3-[(phenylmethyl)amino]phenyl}pyrazine-2-carboxamide]",50 to 1000
3,"CNC(=O)c1nc(-c2cccc(C(=O)NCc3ccc(-n4cccn4)cc3)c2)cnc1N [Example 379, 3-amino-N-methyl-6-{3-[({[4-(1H-pyrazol-1-yl)phenyl]methyl}amino)carbonyl]phenyl}pyrazine-2-carboxamide]",50 to 1000
4,"CNC(=O)c1nc(-c2cccc(C(=O)NC3CCN(Cc4ccccc4)CC3)c2)cnc1N [Example 118, 3-amino-N-methyl-6-[3-({[1-(phenylmethyl)piperidin-4-yl]amino}carbonyl)phenyl]pyrazine-2-carboxamide]",50 to 1000
5,"CNC(=O)c1nc(-c2cccc(C(=O)NCc3cc(F)cc(C(F)(F)F)c3)c2)cnc1N [Example 172, 3-amino-6-{3-[({[3-fluoro-5-(trifluoromethyl)phenyl]methyl}amino)carbonyl]phenyl}-N-methylpyrazine-2-carboxamide]",50 to 1000
6,"CNC(=O)c1nc(-c2noc(CCc3ccccc3)n2)cnc1N [Example 72, 3-amino-N-methyl-6-[5-(2-phenylethyl)-1,2,4-oxadiazol-3-yl]pyrazine-2-carboxamide]",≥ 10000
7,"CNC(=O)c1nc(-c2ccc(OC)c(C(=O)NCc3ccccc3)c2)cnc1N [Example 348, 3-amino-N-methyl-6-(4-(methyloxy)-3-{[(phenylmethyl)amino]carbonyl}phenyl)pyrazine-2-carboxamide]",50 to 1000
8,"CCNC(=O)c1nc(-c2cccc(N)c2)cnc1N [Example 88, 3-amino-6-(3-aminophenyl)-N-ethylpyrazine-2-carboxamide]",1000 to 10000
